# Columns and labels:
# [1] = system: human retinal microvascular EC (hRMECs); test: hRMEC proliferation assay; assay type: cell-based
# Description: (§1) Proliferation assays with BCECs and BRECs were performed. Log-phase growing BCECs or BRECs (passage <10) were trypsinized, re-suspended and seeded in 96-well plates (no coating) in low-glucose DMEM supplemented with 10% bovine calf serum, 2 mM glutamine, and antibiotics (growth medium), at a density of 1200-1500 cells per well in 200 μl volume. All reagents were added at the indicated final concentrations. After 3-6 days, cells were incubated with AlamarBlue for 4 hrs. Fluorescence was measured at 530 nm excitation wavelength and 590 nm emission wavelength. The experiments were repeated at least three times. To create a hypoxic condition, cells were placed in a hypoxia incubator with a mixture of gas consisting of 1% O2, 5% CO2 and 94% N2. On each 96-well plate, untreated and VEGF-treated (10/ng/ml) wells were included to monitor plate-to-plate variations. 20% methanol or 0.05% DMSO served as negative controls. […] Human RMVECs and human adult DMVECs were split into Gelatin-coated 96 wells (2000 cells per well) in low glucose DMEM containing 10% FBS. 1200 cells/well was set up for proliferation assay in low glucose media containing 0.5% FBS. Data was collected at day 4 or 5. HUVEC (p7-10) were grown on gelatin-coated plate until it reached 70-80% confluency.
# HUVEC = HUVEC migration assay; assay type: cell-based, human; settings: 40 μM ManN alone
# Description: HUVECs (passage 6-8) were cultured and serum-starved as described in “Western Blots”. Ten thousand cells in […] of EBM-2 medium were then added to the upper chamber of […] pore size cell culture inserts (Falcon) coated with 0.1% gelatin. The lower compartment was filled with […] EBM-2 medium containing various agents. The plates were incubated at 37° C. to allow migration. After 4 hrs, cells were fixed with 4% PFA for 20 min and then stained with crystal violet (Sigma-Aldrich) for 20 min at RT. Migrated cells on the bottom side of the insert membrane were quantified by counting whole area of the insert at 40× magnification. The experiments were carried out in triplicate and repeated three times. BCEC migration was set up similarly, except that wells were coated with FN, cells were suspended in 1% serum media and migration time was 18-24 hrs.
# [2] = system: N-linked glycans from BCECs; test: N-glycan analysis of BCECs; assay type: cell-based, bovine
# Description: As soon as BCECs reached about 80% confluency, they were washed twice with phosphate buffered saline (PBS, Sigma) and harvested by scraping. The cells were pelleted by centrifugation at 300 g for 3 mins and washed once with cold PBS. Cells were homogenized and total protein was measured. All subsequent analysis was based on known protein amount.
# N-linked glycans were removed from glycoprotein samples using PNGase-F kit (New England BioLabs, P0705S). Briefly, 300 μg of protein sample was reconstituted in 180 μl UltraPure water. 20 μl of 10× denaturing buffer was added and boiled using 100° C. water bath for 14 mins. Samples were cooled down to room temperature and centrifuged at 2700 g for 1 min. Subsequently, 50 μl 10×NP-40 was added and samples were kept at room temperature for 30 mins with vortexing at 5 min interval, followed by adding 25 μL of 10× reaction buffer and mixing thoroughly. 5 μl PNGaseF (2500 U) was then added to the samples and mixed gently. Samples were incubated at 37° C. for 16 hrs. Released N-glycans were purified using solid phase extraction method. […] The data was collected using the Dionex ICS-3000 HPLC system with Ultimate 3000 fluorescence detector (Dionex) set at Acx 330 nm at Atm 420 nm with sensitivity 7. […]
# [3] = system: bovine retinal microvascular endothelial cells (BREC); test: BREC proliferation assay; assay type: cell-based; settings: bovine retinal EC
# Description: as §1
# [4] = system: vascular permeability in guinea pig skin; test: Vascular permeability assay (modified Miles assay); assay type: in vivo; settings: ManN 1 ng-5 μg, VEGF 25 ng, intradermal
# Description: Vascular permeability was assessed using a modified Miles assay. Hairless male guinea pigs (Crl: HA-Hrhr/IAF, 75 days old, 450-500 g, Charles River Laboratories) were anesthetized by intraperitoneal (i.p.) administration of xylazine (5 mg/kg) and ketamine (75 mg/kg). The animals then received an intravenous injection (penile vein) of 1 ml of 1% Evans blue dye. After 15 mins, intradermal injections (0.05 ml/per site) of different doses of ManN were administrated into the area of trunk posterior to the shoulder. All reagents were diluted in PBS for intradermal administration. 25 ng of VEGF165 per site was used as positive control. 30 mins after the intradermal injections, animals were euthanized by i.p. injection of pentobarbital (200 mg/kg). Skin tissues were dissected from the connective tissues and photographed.
compound,measurement,setting,value
"N[C@H](C=O)[C@@H](O)[C@H](O)[C@H](O)CO [ManN, 2-Amino-2-deoxy-D-mannose]",toxicity on hRMECs,[1]; 5 mM ManN,minimal toxicity
same,additivity with VEGF on hRMEC proliferation,[1]; with VEGF,dose-dependent additivity with VEGF
same,HUVEC migration,HUVEC,stimulation of migration and wound closure
same,Man-5 and Man-7 content,[2]; 40 μM ManN,significant early phase accumulation
same,"Man-6, Man-8 and Man-9 in total oligomannose N-glycan content",[2]; 40 μM ManN vs untreated control,significant time-dependent reduction
same,additive effects in promoting BREC proliferation,[3],Additive effects
same,induction of vascular permeability,[4],no permeability-enhancing effects

# — patent US20250275993A1, “GLYCOSYLATION INHIBITORS AS THERAPEUTICS FOR STROKE” (The Regents of the University of California, priority 2022, published 2025)
